Blank lines part the entries; values can stand above or below the compound they belong to.
Molecular target: T1, His-hSHIP1 enzyme (Homo sapiens, UniProt Q92835)
T1 construct: His
T1 sequence (Q92835 1-1189): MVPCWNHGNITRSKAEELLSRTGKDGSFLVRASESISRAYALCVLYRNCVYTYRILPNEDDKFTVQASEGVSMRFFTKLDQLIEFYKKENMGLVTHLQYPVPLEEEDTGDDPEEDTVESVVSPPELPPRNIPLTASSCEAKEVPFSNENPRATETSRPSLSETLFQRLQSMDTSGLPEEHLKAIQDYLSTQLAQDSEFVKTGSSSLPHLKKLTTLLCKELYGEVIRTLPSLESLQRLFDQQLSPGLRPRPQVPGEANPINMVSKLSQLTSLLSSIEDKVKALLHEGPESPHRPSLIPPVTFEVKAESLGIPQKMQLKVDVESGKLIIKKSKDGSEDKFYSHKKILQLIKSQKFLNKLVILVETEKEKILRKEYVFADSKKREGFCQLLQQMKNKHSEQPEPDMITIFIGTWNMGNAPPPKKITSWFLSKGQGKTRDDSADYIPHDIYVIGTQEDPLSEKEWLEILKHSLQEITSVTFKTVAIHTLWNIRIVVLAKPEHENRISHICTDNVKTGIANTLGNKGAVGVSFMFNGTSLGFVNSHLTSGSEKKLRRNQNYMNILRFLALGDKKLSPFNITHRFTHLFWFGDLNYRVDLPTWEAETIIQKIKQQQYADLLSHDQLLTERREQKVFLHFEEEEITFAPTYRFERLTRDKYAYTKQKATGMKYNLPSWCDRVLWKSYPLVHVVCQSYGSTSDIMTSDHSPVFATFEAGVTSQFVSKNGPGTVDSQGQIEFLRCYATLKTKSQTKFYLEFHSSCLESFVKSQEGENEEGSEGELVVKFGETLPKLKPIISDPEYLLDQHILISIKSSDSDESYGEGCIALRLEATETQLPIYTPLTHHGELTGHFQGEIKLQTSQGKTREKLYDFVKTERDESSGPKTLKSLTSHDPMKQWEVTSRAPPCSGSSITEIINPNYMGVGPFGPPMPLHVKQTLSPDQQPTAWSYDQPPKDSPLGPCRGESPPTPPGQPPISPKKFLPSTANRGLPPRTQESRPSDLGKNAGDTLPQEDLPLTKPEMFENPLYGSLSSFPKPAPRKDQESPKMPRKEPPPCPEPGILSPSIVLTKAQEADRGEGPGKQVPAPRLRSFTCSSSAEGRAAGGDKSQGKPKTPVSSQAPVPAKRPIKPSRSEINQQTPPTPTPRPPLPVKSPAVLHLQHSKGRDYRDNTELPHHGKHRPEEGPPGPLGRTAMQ
Test: His-hSHIP1 activity (phosphatase assay, IP4 substrate, Biomol Green)
Assay type: biochemical
Parameters: key: +++: higher than reference or reference - 15%; ++: reference - 16% to reference - 30%; +: reference - 31% or lower; −: inhibitor
Conditions: ratio of initial velocities (IP4 25/IP4 250 μM final) compared with a reference SHIP1 activator; 37° C.
Experimental: Test compounds are dissolved in 95% ethanol to form stock solutions. Before screening, the stock solutions are diluted with Phosphatase Assay Buffer (20 mM Tris-HCL, 10 mM MgCl2 pH 7.5, 0.02% Tween 20) to form working assay solutions that contain 10% ethanol. The assay is carried out on 96-well microtiter plates using a modified procedure of that reported by Ong et al., Blood 110, 1942-1949, 2007 and Yang et al., Org Lett 7, 1073-1076, 2005, both of which references are incorporated herein by reference in their entirety.
A master mix is prepared that contains 50 μL of His-hSHIP1 enzyme (0.4-1.6 ng/μL final), 25 μL of the substrate, IP4 (25 or 250 μM final), and 50 μL of test compound in 3.3% ethanol ([…]). Control blanks are also prepared by replacing His-hSHIP1 enzyme, IP4, or test compounds with Phosphate Assay Buffer. […] Each reaction component is preincubated at 37° C. for 30 min before adding to a 96-well microtiter plate. The master mix is then incubated at 37° C. At time 0, 20, 25 and 30 min, 25 μL of the master mix is removed and transferred to a new 96-well microtiter plate, to which 100 μL of Biomol Green Reagent is added to stop the reaction. After incubating the mixture for 20 min at room temperature for color development, the absorbance is read with SpectraMax Plus 96-well plate reader at a wavelength of 650 nm. Phosphate released is plotted against time to calculate the initial velocities (i.e., slope of the graph) at each IP4 concentration. The initial velocities are baseline corrected and the ratio of initial velocities (IP425/IP4250) is calculated and used to rate the test compounds.
The compound numbers in Table 2 correspond to the compound numbers in Table 1 above. Scoring of the compound is expressed as follows: […]

Compound: C[C@]1([C@H]2CC[C@]3(C)C(c4ccccc4)=CC[C@H]3[C@@H]2CN)CC[C@H](O)C[C@@H]1CO.Cl [compound 10, (1S,3S,4R)-4-((3aS,6S,7R,7aS)-7-(aminomethyl)-3a-methyl-3-phenyl-3a,4,5,6,7,7a-hexahydro-1H-inden-6-yl)-3-(hydroxymethyl)-4-methylcyclohexanol hydrochloride]
Scoring (Initial Velocity Ratio): ++

Compound: CC(=O)O.CC1(C2CCC3(C)C(CCC3(O)c3ccccc3)C2CN)CCC(O)CC1CO [compound 11, (1S,3aS,4R,5S,7aS)-4-(aminomethyl)-5-((1R,2S,4S)-4-hydroxy-2-(hydroxymethyl)-1-methylcyclohexyl)-7a-methyl-1-phenyloctahydro-1H-inden-1-ol acetate]
Scoring (Initial Velocity Ratio): −

Compound: C[C@]1([C@H]2CC[C@@]3(C)[C@@H](CC[C@@]3(O)c3ccco3)[C@@H]2CN)CC[C@H](O)C[C@@H]1CO [compound 12, (1S,3aS,4R,5S,7aS)-4-(aminomethyl)-1-(furan-2-yl)-5-((1R,2S,4S)-4-hydroxy-2-(hydroxymethyl)-1-methylcyclohexyl)-7a-methyloctahydro-1H-inden-1-ol]
Scoring (Initial Velocity Ratio): +++

Compound: C[C@]1([C@H]2CC[C@]3(C)C(c4ccco4)=CC[C@H]3[C@@H]2CN)CC[C@H](O)C[C@@H]1CO [compound 13, (1S,3S,4R)-4-((3aS,6S,7R,7aS)-7-(aminomethyl)-3-(furan-2-yl)-3a-methyl-3a,4,5,6,7,7a-hexahydro-1H-inden-6-yl)-3-(hydroxymethyl)-4-methylcyclohexanol]
Scoring (Initial Velocity Ratio): +

Compound: C[C@]1([C@H]2CC[C@]3(C)C(c4cccs4)=CC[C@H]3[C@@H]2CN)CC[C@H](O)C[C@@H]1CO [compound 16, (1S,3S,4R)-4-((3aS,6S,7R,7aS)-7-(aminomethyl)-3a-methyl-3-(thiophen-2-yl)-3a,4,5,6,7,7a-hexahydro-1H-inden-6-yl)-3-(hydroxymethyl)-4-methylcyclohexanol]
Scoring (Initial Velocity Ratio): +

Compound: C[C@]1([C@H]2CC[C@@]3(C)[C@@H](CC[C@@]3(O)c3ccccn3)[C@@H]2CN)CC[C@H](O)C[C@@H]1CO [compound 17, (1S,3aS,4R,5S,7aS)-4-(aminomethyl)-5-((1R,2S,4S)-4-hydroxy-2-(hydroxymethyl)-1-methylcyclohexyl)-7a-methyl-1-(pyridin-2-yl)octahydro-1H-inden-1-ol]
Scoring (Initial Velocity Ratio): −

Compound: C[C@]1([C@H]2CC[C@@]3(C)[C@@H](CC[C@@]3(O)c3nccs3)[C@@H]2CN)CC[C@H](O)C[C@@H]1CO [compound 20, (1S,3aS,4R,5S,7aS)-4-(aminomethyl)-5-((1R,2S,4S)-4-hydroxy-2-(hydroxymethyl)-1-methylcyclohexyl)-7a-methyl-1-(thiazol-2-yl)octahydro-1H-inden-1-ol]
Scoring (Initial Velocity Ratio): ++

Compound: C[C@]1([C@H]2CC[C@]3(C)C(c4ccccc4)=CC[C@H]3[C@@H]2CO)CC[C@H](O)C[C@@H]1CO [compound 25, (1S,3S,4R)-3-(hydroxymethyl)-4-((3aS,6S,7R,7aS)-7-(hydroxymethyl)-3a-methyl-3-phenyl-3a,4,5,6,7,7a-hexahydro-1H-inden-6-yl)-4-methylcyclohexanol]
Scoring (Initial Velocity Ratio): ++

Compound: C[C@]1([C@H]2CC[C@@]3(C)[C@@H](CC[C@@]3(O)c3ccccc3)[C@@H]2CO)CC[C@H](O)C[C@@H]1CO [compound 26, (1S,3aS,4R,5S,7aS)-5-((1R,2S,4S)-4-hydroxy-2-(hydroxymethyl)-1-methylcyclohexyl)-4-(hydroxymethyl)-7a-methyl-1-phenyloctahydro-1H-inden-1-ol]
Scoring (Initial Velocity Ratio): −

Results, then the compound that gave them:

Scoring (Initial Velocity Ratio): +
Compound: CC1(C)CCC2=C1CC[C@H]([C@@]1(C)CC[C@H](O)C[C@@H]1CO)[C@H]2CNC(=O)c1cccnc1 [compound 1, N-(((4R,5S)-5-((1R,2S,4S)-4-hydroxy-2-(hydroxymethyl)-1-methylcyclohexyl)-1,1-dimethyl-2,3,4,5,6,7-hexahydro-1H-inden-4-yl)methyl)nicotinamide]

Scoring (Initial Velocity Ratio): ++
Compound: CN/C(=N\C#N)NC[C@H]1C2=C(CC[C@@H]1[C@@]1(C)CC[C@H](O)C[C@@H]1CO)C(C)(C)CC2 [compound 3, (E)-2-cyano-1-(((4R,5S)-5-((1R,2S,4S)-4-hydroxy-2-(hydroxymethyl)-1-methylcyclohexyl)-1,1-dimethyl-2,3,4,5,6,7-hexahydro-1H-inden-4-yl)methyl)-3-methylguanidine]

Scoring (Initial Velocity Ratio): ++
Compound: C[C@]1([C@H]2CC[C@]3(C)c4ncccc4C[C@H]3[C@@H]2CN)CC[C@H](O)C[C@@H]1CO [compound 9, (1S,3S,4R)-4-((5aS,6R,7S,9aS)-6-(aminomethyl)-9a-methyl-5a,6,7,8,9,9a-hexahydro-5H-indeno[1,2-b]pyridin-7-yl)-3-(hydroxymethyl)-4-methylcyclohexanol]

Scoring (Initial Velocity Ratio): ++
Compound: C[C@]1([C@H]2CCC3=C(C[C@@H](O)[C@@]3(C)c3ccccc3)[C@@H]2CN)CC[C@H](O)C[C@@H]1CO [compound 19, (1S,2R,4R,5S)-4-(aminomethyl)-5-((1R,2S,4S)-4-hydroxy-2-(hydroxymethyl)-1-methylcyclohexyl)-1-methyl-1-phenyl-2,3,4,5,6,7-hexahydro-1H-inden-2-ol]

Scoring (Initial Velocity Ratio): +
Compound: C=C1CC[C@H]2[C@H](CO)[C@@H]([C@@]3(C)Cc4cn[nH]c4C[C@@H]3CO)CC[C@]12C [compound 21, ((3aS,4R,5S,7aS)-5-((5R,6S)-6-(hydroxymethyl)-5-methyl-4,5,6,7-tetrahydro-1H-indazol-5-yl)-7a-methyl-1-methyleneoctahydro-1H-inden-4-yl)methanol]

Scoring (Initial Velocity Ratio): ++
Compound: C=C1CC[C@H]2[C@H](CO)[C@@H]([C@@]3(C)Cc4conc4C[C@@H]3CO)CC[C@]12C [compound 22, ((3aS,4R,5S,7aS)-5-((5R,6S)-6-(hydroxymethyl)-5-methyl-4,5,6,7-tetrahydrobenzo[c]isoxazol-5-yl)-7a-methyl-1-methyleneoctahydro-1H-inden-4-yl)methanol]

Scoring (Initial Velocity Ratio): +++
Compound: CC1(C)CCC2=C1CC[C@H]([C@@]1(C)Cc3cnoc3C[C@@H]1CO)[C@H]2CO [compound 23, ((5R,6S)-5-((4R,5S)-4-(hydroxymethyl)-1,1-dimethyl-2,3,4,5,6,7-hexahydro-1H-inden-5-yl)-5-methyl-4,5,6,7-tetrahydrobenzo[d]isoxazol-6-yl)methanol]

Scoring (Initial Velocity Ratio): ++
Compound: C=C1CC[C@H]2[C@H](CO)[C@@H]([C@@]3(C)Cc4sc(C)nc4C[C@@H]3CO)CC[C@]12C [compound 24, ((3aS,4R,5S,7aS)-5-((5S,6R)-5-(hydroxymethyl)-2,6-dimethyl-4,5,6,7-tetrahydrobenzo[d]thiazol-6-yl)-7a-methyl-1-methyleneoctahydro-1H-inden-4-yl)methanol]

Scoring (Initial Velocity Ratio): ++
Compound: C#C[C@]1(O)CC[C@H]2[C@H](CO)[C@@H]([C@@]3(C)CC[C@H](O)C[C@@H]3CO)CC[C@@]21C [compound 28, (1R,3aS,4R,5S,7aS)-1-ethynyl-5-((1R,2S,4S)-4-hydroxy-2-(hydroxymethyl)-1-methylcyclohexyl)-4-(hydroxymethyl)-7a-methyloctahydro-1H-inden-1-ol]
